3 compounds from PubChem BioAssay (NCI) can be followed below.

Test systems include PC-3 prostate; KM12 colon; SW-620 colon; SR leukemia; HCT-116 colon; OVCAR-8 ovarian; SF-295 CNS; NCI-H460 lung; SNB-19 CNS; SNB-75 CNS.
Experiment in all cases: inhibition of tumour cell growth, NCI panel, 48 h

The structures appear in SMILES notation.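 Dose response: 5 concentrations. Exposure: 48 h. Format: 96-well plates. Endpoint: linear interpolation; highest concentration if not reached. TGI marks complete inhibition of growth.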 A value given as a limit tells only on which side of the number the result lay.

In the case of `CN(C)CCOc1ccc(-c2c(Oc3ccc(Cl)cc3)c(=O)oc3ccccc23)cc1`, the TGI was 30.1 µM in the assay on PC-3 prostate; 48.1 µM in the assay with KM12 colon; more than 62 µM in the assay on SW-620 colon; more than 30.6 µM in the assay with SR leukemia; more than 32.9 µM in the assay with HCT-116 colon; more than 42.8 µM with OVCAR-8 ovarian. The TGI is more than 25.7 µM in the assay with SF-295 CNS, 27.4 µM in the assay with NCI-H460 lung, more than 46 µM in the assay with SNB-19 CNS and 25.3 µM with SNB-75 CNS.
With `COc1ccc(N=C/C=C/Nc2ccc(OC)cc2)cc1`, the TGI in the assay with PC-3 prostate is 26.1 µM; in the assay with KM12 colon it was 9.55 µM; in the assay on SW-620 colon, 5.48 µM; in the assay with SR leukemia it was 11.2 µM; in the assay on HCT-116 colon, 11.8 µM; in the assay with OVCAR-8 ovarian, 9.9 µM. For the same compound, the TGI in the assay on SF-295 CNS stood at 21.6 µM; with NCI-H460 lung, 28.1 µM; in the assay with SNB-19 CNS it was 10.4 µM; with SNB-75 CNS, 33.1 µM.
Consider `c1ccc(N=NNNc2ccc(-c3nc4ccccc4[nH]3)cc2)cc1`, for which the TGI is 82.3 µM in the assay with PC-3 prostate; more than 100 µM with KM12 colon; more than 100 µM in the assay with SW-620 colon; more than 100 µM in the assay on SR leukemia; more than 100 µM in the assay with HCT-116 colon; more than 100 µM in the assay with OVCAR-8 ovarian. The TGI with SF-295 CNS was 68 µM; in the assay on NCI-H460 lung, more than 100 µM; in the assay with SNB-19 CNS, more than 100 µM; with SNB-75 CNS, 88.7 µM.
